Experimental data published in patent US5610297A, “Peptides ketoamides” (Georgia Tech Research Corp., priority 1995, dated 1997).

Legend:
[1] = test system: Calpain-mediated breakdown of spectrin in platelets; test: Platelet membrane permeability assay; format: cell-based, rat; design: key: +++ = excellent activity; ++ = good activity; + = moderate activity; quantitative measurements not yet complete; conditions: class symbols; quantitative measurements not yet complete
Description: Platelet membrane permeability assay. Calpain-mediated breakdown of spectrin was measured by quantitative densitometry of the calpain-specific 150/155 kDa spectrin fragment doublet [see Siman et al., Proc. Natl. Acad. Sci. USA 81, 3572-3576 (1984)]. Platelets were isolated by a modification of the method of Ferrell and Martin [J. Biol. Chem. 264, 20723-20729 (1989)]. Blood (15-20 ml) was drawn from male Sprague-Dawley rats into 1/10th volume of 100 mM EDTA-citrate, and centrifuged 10 minutes at 2000 rpm in a clinical centrifuge at room temperature. […] Platelets were washed once in 15 ml buffer 1, then resuspended to 10^7 cells/ml in buffer 2 (136 mM NaCl, 2.7 mM KCl, 0.42 mM NaH2 PO4, 12 mM NaHCO3, 2mM MgCl, 1 mg/ml BSA (Sigma), 5.6 mM glucose, 20 mM HEPES (Sigma) pH 7.4) and allowed to "rest" for a minimum of 10 minutes at room temperature before use.
Inhibitors were added from stock solutions made fresh in DMSO. 100 μl platelets, suspended to 10^7 cells/ml in buffer 2, were incubated with 1 μl of an inhibitor solution for 5 minutes at room temperature prior to the addition of 2 mM Ca^2+ and 1 uM A23 187. After 10 minutes total exposure to inhibitor (5 minutes exposure to ionophore) at room temperature, platelets were reisolated at 14,000 rpm for 10 sec in a Beckman microfuge, dissolved in SDS-PAGE sample buffer, and heated to 90° C. for 3 minutes.
Samples were subjected to SDS-PAGE in 4-12% gradient mini gels (Novex) and transferred to nitrocellulose (Schleicher and Schuell 0.45 um) by electroblotting. Filters were blocked for 10 minutes in 0.25% gelatin, 1% BSA, 0.25% triton X100, 0.9% NaCl, 10 mM Tris-Cl pH 7.5, incubated overnight in the same solution containing antibody to rat spectrin, washed 3×10 minutes with 10 mM Tris-Cl pH 7.5, 0.5% triton X100, incubated 4 hours in wash buffer plus alkaline phosphatase conjugated goat anti-rabbit antibody (Biorad), and washed as above. Blots were developed using the Biorad AP conjugate substrate kit. Quantitative densitometry was used to obtain values for the intact spectrin bands and the 150/155 kDa breakdown product doublet.

Half-life in plasma = format: in vitro ADME; conditions: unit inferred, unit assumed
papain = biological target: T1, papain (Carica papaya, UniProt P00784); conditions: reported by Hu and Abeles; cited from earlier work
T1 sequence (P00784 134-345): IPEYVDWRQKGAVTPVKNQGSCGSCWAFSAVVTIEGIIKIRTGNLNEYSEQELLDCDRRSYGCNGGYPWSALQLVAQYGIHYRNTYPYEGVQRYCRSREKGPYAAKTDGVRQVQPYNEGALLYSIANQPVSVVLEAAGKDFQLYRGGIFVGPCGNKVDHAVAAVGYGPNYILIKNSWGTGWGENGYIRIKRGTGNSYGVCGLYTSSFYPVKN

cathepsin B = cathepsin B (Homo sapiens, UniProt P07858); conditions: reported by Hu and Abeles; cited from earlier work

t 1/2 plasma (Half-life in plasma) [min]	SMILES	platelet (Activity in the Platelet Assay) [1]	Ki (papain) [µM]	Ki (cathepsin B) [µM]
	CC[C@H](NC(=O)[C@H](CC(C)C)NC(=O)OCc1ccccc1)C(=O)C(=O)OCc1ccccc1 [Z--Leu--Abu--COOBzl]	++		
	CCOC(=O)C(=O)[C@H](Cc1ccccc1)NC(=O)[C@H](CC(C)C)NC(=O)[C@H](CC(C)C)NC(=O)OCc1ccccc1 [Z--Leu--Leu--Phe--COOEt]	++		
8	CCOC(=O)C(=O)C(CCSC)NC(=O)C(CC(C)C)NC(=O)OCc1ccccc1 (stereo not shown) [Z--Leu--Met--COOEt]	+		
1.9	CC(C)CC(NC(=O)OCc1ccccc1)C(=O)NC(Cc1ccccc1)C(=O)C(=O)OCc1ccccc1 (stereo not shown) [Z--Leu--Phe--COOBz]	++		
7.7	CCCCOC(=O)C(=O)[C@H](Cc1ccccc1)NC(=O)[C@H](CC(C)C)NC(=O)OCc1ccccc1 [Z--Leu--Phe--COOnBu]	+++		
	CCNC(=O)C(=O)CNC(=O)[C@H](Cc1ccccc1)NC(=O)OCc1ccccc1 [Z-Phe-Gly-CO--NH-Et]		1.5	4
